Measurements taken from ChEMBL document CHEMBL5653615 (J Biol Chem, 2013).

How the values were obtained:
[1] = biological target: T1, Serine/threonine-protein kinase Sgk3 (Homo sapiens) (UniProt Q96BR1); test: Inhibition of human SGKL at 18.6 nM by HotSpot assay relative to control
T1 sequence (whole entry): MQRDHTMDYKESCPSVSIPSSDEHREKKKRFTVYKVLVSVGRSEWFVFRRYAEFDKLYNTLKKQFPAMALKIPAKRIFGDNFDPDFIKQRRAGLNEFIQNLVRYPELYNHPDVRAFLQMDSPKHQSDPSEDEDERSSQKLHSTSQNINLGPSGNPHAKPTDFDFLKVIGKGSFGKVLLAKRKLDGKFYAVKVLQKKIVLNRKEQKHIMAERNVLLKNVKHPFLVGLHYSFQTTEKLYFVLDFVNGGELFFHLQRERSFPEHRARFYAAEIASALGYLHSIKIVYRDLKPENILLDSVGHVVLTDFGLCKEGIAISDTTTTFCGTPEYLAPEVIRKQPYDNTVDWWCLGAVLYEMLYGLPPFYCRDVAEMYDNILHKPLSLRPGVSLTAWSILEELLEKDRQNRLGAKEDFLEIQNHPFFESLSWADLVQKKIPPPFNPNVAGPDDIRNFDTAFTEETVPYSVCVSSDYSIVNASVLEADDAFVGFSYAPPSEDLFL

[2] = biological target: Serine/threonine-protein kinase 33 (Homo sapiens) (UniProt Q9BYT3); test: Inhibition of human STK33 at 18.6 nM by HotSpot assay relative to control
[3] = biological target: Tyrosine-protein kinase FRK (Homo sapiens) (UniProt P42685); test: Inhibition of human FRK at 1.82 nM by HotSpot assay relative to control
[4] = biological target: Protein kinase C gamma type (Homo sapiens) (UniProt P05129); test: Inhibition of human PKCg at 1.82 nM by HotSpot assay relative to control
[5] = biological target: T2, Serine/threonine-protein kinase D3 (Homo sapiens) (UniProt O94806); test: Inhibition of human PRKD3 at 1.82 nM by HotSpot assay relative to control
T2 sequence (whole entry): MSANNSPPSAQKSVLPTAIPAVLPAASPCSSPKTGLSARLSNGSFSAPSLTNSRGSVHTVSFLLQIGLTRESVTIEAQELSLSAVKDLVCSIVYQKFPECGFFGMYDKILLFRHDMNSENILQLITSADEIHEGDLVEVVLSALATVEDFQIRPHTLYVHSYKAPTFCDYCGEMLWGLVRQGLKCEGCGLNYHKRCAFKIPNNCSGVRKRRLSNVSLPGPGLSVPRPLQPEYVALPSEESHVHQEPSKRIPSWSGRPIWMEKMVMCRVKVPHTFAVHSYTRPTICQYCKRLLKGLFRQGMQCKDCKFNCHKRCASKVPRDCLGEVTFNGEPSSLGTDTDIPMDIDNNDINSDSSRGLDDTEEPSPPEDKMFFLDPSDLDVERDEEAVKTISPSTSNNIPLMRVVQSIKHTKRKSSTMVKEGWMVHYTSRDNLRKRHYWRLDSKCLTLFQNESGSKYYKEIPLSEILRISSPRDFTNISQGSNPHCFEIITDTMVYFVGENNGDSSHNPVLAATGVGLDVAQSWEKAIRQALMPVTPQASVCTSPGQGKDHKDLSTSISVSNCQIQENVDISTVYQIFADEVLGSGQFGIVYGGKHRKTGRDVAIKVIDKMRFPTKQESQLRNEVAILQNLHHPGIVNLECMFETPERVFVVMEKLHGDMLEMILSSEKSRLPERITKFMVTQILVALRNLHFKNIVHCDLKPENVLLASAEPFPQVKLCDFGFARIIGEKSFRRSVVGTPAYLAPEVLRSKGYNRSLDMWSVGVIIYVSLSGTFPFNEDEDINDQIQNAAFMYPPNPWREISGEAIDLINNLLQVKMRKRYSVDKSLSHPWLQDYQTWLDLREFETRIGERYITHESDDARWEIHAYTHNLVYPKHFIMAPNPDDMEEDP

[6] = biological target: T3, Tyrosine-protein kinase ZAP-70 (Homo sapiens) (UniProt P43403); test: Inhibition of human ZAP70 at 1.82 nM by HotSpot assay relative to control
T3 sequence (whole entry): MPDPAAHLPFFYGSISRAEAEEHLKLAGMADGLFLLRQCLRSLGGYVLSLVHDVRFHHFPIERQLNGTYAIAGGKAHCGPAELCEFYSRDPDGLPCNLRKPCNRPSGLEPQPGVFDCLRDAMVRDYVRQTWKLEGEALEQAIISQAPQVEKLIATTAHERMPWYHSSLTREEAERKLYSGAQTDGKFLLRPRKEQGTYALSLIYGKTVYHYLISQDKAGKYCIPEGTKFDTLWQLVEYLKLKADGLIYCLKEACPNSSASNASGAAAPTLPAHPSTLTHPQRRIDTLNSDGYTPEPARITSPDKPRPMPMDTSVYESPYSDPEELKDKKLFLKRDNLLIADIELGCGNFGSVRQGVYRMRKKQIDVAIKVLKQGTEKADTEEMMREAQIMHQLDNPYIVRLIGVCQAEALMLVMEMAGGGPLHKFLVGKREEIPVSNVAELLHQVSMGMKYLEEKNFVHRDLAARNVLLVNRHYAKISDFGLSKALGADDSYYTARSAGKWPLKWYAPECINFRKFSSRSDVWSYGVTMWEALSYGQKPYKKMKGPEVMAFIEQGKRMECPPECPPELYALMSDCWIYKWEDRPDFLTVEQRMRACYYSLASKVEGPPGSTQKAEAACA

Sequence of Tyrosine-protein kinase FRK (Homo sapiens) (P42685 whole entry): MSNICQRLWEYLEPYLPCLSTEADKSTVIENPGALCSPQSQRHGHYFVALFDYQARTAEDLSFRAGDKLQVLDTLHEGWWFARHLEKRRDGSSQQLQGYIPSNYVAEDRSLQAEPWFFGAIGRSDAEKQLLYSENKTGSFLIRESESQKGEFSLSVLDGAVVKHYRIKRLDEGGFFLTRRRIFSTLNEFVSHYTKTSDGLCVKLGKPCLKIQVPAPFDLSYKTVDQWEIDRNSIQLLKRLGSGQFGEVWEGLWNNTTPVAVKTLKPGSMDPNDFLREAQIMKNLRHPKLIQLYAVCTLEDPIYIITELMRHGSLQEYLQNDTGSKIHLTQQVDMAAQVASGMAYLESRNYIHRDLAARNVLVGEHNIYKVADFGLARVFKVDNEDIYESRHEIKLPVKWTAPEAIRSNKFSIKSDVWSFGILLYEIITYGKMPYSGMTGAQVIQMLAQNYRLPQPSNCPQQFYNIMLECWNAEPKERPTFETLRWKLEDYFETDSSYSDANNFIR
Sequence of Serine/threonine-protein kinase 33 (Homo sapiens) (Q9BYT3 whole entry, looked up): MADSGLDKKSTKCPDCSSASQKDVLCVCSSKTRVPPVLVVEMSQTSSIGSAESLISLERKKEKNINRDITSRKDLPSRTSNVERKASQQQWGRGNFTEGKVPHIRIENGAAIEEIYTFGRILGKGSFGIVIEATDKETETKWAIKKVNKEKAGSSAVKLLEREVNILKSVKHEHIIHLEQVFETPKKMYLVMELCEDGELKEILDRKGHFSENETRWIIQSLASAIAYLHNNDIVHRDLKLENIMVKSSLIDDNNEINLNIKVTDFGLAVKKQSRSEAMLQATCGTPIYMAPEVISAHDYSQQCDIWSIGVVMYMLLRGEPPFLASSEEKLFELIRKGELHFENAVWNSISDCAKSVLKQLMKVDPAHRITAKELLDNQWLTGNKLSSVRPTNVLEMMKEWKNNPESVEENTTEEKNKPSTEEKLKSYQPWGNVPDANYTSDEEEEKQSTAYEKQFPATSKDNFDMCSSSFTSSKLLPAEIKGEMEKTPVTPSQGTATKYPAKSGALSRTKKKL

| Structure (SMILES) | inhibition [1] | inhibition [2] | inhibition [3] | inhibition [4] | inhibition [5] | inhibition [6] |
| --- | --- | --- | --- | --- | --- | --- |
| C[C@]1(O)C[C@@H](c2nc(-c3ccc4ccc(-c5ccccc5)nc4c3)c3c(N)nccn32)C1 | 0.11% | -0.08% |  |  |  |  |
| C[C@@]1(C(=O)Nc2ccc(F)nc2)CCCN1c1nc(Nc2cc(C3CC3)n[nH]2)c2cccn2n1 |  |  | 0.97% | -7.52% | 2.81% | -2.24% |
